Measured values reported in ChEMBL document CHEMBL1201862, “PubChem BioAssay data set” (2004).
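Grown in 96-well plates, cells were treated for 48 hours with each compound at five concentrations. Insufficient inhibition: endpoint recorded as highest concentration tested. Abbreviation: GI50, concentration required for 50% inhibition of growth.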 Active and inactive are the calls of the source. Cut-off read from the data, not from the text of the source: active = GI50 up to about 1.1 µM and inactive = higher.

Experiments:
Test in all cases: NCI anticancer screen, dose series, 48 h
[1] = system: 786-0
[2] = system: A549
[3] = system: ACHN
[4] = system: BT-549
[5] = system: CAKI-1
[6] = system: CCRF-CEM
[7] = system: COLO 205
[8] = system: DU-145
[9] = system: HCC 2998
[10] = system: HCT-116
[11] = system: HCT-15
[12] = system: HL-60
[13] = system: HOP-62
[14] = system: HOP-92
[15] = system: HT-29
[16] = system: Hs-578T
[17] = system: IGROV-1
[18] = system: K562
[19] = system: KM12
[20] = system: LOX IMVI
[21] = system: M14
[22] = system: MDA-MB-231
[23] = system: MDA-MB-435
[24] = system: MDA-N
[25] = system: MOLT-4
[26] = system: Malme-3M
[27] = system: NCI-H23
[28] = system: NCI-H460
[29] = system: NCI/ADR-RES
[30] = system: OVCAR-3
[31] = system: OVCAR-4
[32] = system: OVCAR-5
[33] = system: OVCAR-8
[34] = system: PC-3
[35] = system: RPMI-8226
[36] = system: SF-295
[37] = system: SF-539
[38] = system: SK-MEL-28
[39] = system: SK-MEL-2
[40] = system: SK-OV-3
[41] = system: SN12C
[42] = system: SNB-75
[43] = system: SR
[44] = system: SW-620
[45] = system: TK-10
[46] = system: U-251
[47] = system: UACC-257
[48] = system: UACC-62
[49] = system: UO-31
[50] = system: A498
[51] = system: NCI-H226
[52] = system: NCI-H522
[53] = system: SF-268
[54] = system: SK-MEL-5
[55] = system: SNB-19
[56] = system: T47D
[57] = system: EKVX
[58] = system: MCF7
[59] = system: RXF 393

Measured: GI50

c1ccc(CN2CCC3(CC2)SSC2(CCN(Cc4ccccc4)CC2)S3)cc1
inactive: [1] > 100 µM | [2] 27.7 µM | [3] > 100 µM | [4] > 100 µM | [5] 26.9 µM | [6] 65.9 µM | [7] 17 µM | [8] > 100 µM | [9] 26.9 µM | [10] 50.8 µM | [12] 78 µM | [13] > 100 µM | [14] > 100 µM | [15] 17.6 µM | [16] 17.7 µM | [17] > 100 µM | [18] 71.6 µM | [19] 45.3 µM | [20] 48.8 µM | [21] 66.5 µM | [22] > 100 µM | [23] 31.3 µM | [24] 44.7 µM | [25] > 100 µM | [26] 53.7 µM | [27] 30.1 µM | [28] 25.6 µM | [29] > 100 µM | [30] 76.4 µM | [31] 52.4 µM | [32] 85.3 µM | [33] > 100 µM | [34] > 100 µM | [35] 20.1 µM | [36] 26.5 µM | [37] > 100 µM | [38] 44 µM | [39] 76.7 µM | [40] > 100 µM | [41] 87.1 µM | [42] > 100 µM | [43] 28.8 µM | [44] > 100 µM | [45] 64.4 µM | [46] > 100 µM | [47] 26.7 µM | [48] 82.8 µM | [49] > 100 µM
38.8 µM: [11]

Cc1c(Cl)cccc1/N=N/C(=O)NNc1cccc(Cl)c1C
14.3 µM: [11]
inactive: [1] 23.1 µM | [50] 14.4 µM | [2] 16.9 µM | [3] 20.1 µM | [4] 14.1 µM | [6] 16.9 µM | [8] 14.4 µM | [9] 17.3 µM | [10] 15.3 µM | [12] 17.8 µM | [13] 12.8 µM | [15] 20.4 µM | [17] 6.37 µM | [18] 16.8 µM | [20] 21.3 µM | [21] 19.2 µM | [22] 17.8 µM | [23] 18.2 µM | [24] 17.2 µM | [25] 13.3 µM | [26] 16.1 µM | [51] 15.8 µM | [27] 16.7 µM | [28] 16.6 µM | [52] 23.1 µM | [30] 17.6 µM | [31] 12 µM | [32] 14.1 µM | [33] 13.5 µM | [34] 13.3 µM | [35] 25.5 µM | [53] 16.9 µM | [38] 16.6 µM | [39] 13.6 µM | [54] 15.3 µM | [41] 17.3 µM | [55] 17.9 µM | [42] 18 µM | [43] 21.3 µM | [44] 17.1 µM | [56] 10.7 µM | [45] 15.8 µM | [46] 16.2 µM | [47] 23.1 µM | [48] 11.9 µM | [49] 12.5 µM

CCOC(=O)COc1cc(-c2ccccc2)nc2cc(F)ccc12
> 100 µM: [11]
inactive: [1] > 100 µM | [50] > 100 µM | [2] > 100 µM | [4] > 100 µM | [5] > 100 µM | [6] 85.7 µM | [7] > 100 µM | [8] > 100 µM | [57] > 100 µM | [9] > 100 µM | [10] > 100 µM | [13] > 100 µM | [14] 52 µM | [15] > 100 µM | [17] > 100 µM | [18] > 100 µM | [19] > 100 µM | [20] > 100 µM | [21] > 100 µM | [58] > 100 µM | [22] > 100 µM | [23] > 100 µM | [24] > 100 µM | [25] > 100 µM | [26] > 100 µM | [51] > 100 µM | [27] > 100 µM | [29] > 100 µM | [30] > 100 µM | [31] 42 µM | [32] > 100 µM | [33] > 100 µM | [34] > 100 µM | [35] > 100 µM | [59] > 100 µM | [53] > 100 µM | [36] > 100 µM | [37] 39.7 µM | [38] > 100 µM | [39] > 100 µM | [54] > 100 µM | [40] > 100 µM | [41] > 100 µM | [42] > 100 µM | [43] > 100 µM | [44] > 100 µM | [56] > 100 µM | [45] > 100 µM | [46] > 100 µM | [47] > 100 µM | [48] > 100 µM
